# Test results: patent US11076597B2, “High stress resistant plant growth regulator and preparation method and use thereof” (SHANGHAI INSTITUTES FOR BIOLOGICAL SCIENCES, CHINESE …, priority 2015, dated 2021)
# Where two headings read alike, the source gives them in different places.
# Molecular target: T1, PYR1 receptor-HAB1 protein phosphatase complex (Arabidopsis thaliana, UniProt O49686)
# T1 construct: made in house; host or cells: E. coli BL21 (DE3)
# T1 sequence (O49686 1-191): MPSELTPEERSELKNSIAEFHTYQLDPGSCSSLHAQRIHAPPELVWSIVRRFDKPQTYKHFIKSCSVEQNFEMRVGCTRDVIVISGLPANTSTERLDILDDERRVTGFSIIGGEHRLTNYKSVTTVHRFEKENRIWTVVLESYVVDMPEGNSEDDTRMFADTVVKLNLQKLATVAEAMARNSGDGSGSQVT
# T1 sequence (Q9CAJ0 172-511 partner limits assumed): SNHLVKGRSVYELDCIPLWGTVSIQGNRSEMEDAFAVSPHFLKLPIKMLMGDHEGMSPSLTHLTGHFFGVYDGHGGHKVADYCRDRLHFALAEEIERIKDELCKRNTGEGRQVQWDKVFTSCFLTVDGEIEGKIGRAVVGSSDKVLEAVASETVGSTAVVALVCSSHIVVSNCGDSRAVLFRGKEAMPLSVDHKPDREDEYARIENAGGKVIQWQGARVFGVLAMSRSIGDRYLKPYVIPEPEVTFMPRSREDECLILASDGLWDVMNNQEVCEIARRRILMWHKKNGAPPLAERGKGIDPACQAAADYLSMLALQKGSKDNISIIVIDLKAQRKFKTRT
# Assay: AlphaScreen assay: promotion of PYR1 receptor binding to PP2C protein phosphatase HAB1
# Conditions: 6×His-SUMO-tagged PYR1 (whole coding sequence), Biotin-tagged HAB1 (aa 172-511), 100 nM each, pH 7.4, 1.5 h room temperature
# Excerpt: The construction method of recombinant plasmids for the Arabidopsis thaliana genes PYL1 (amino acid sequence 36-211), PYL2 (amino acid sequence 14-188) with dual tags of 6×His and SUMO sequence and the Arabidopsis thaliana gene HAB1 (amino acid sequence 172-511) with the Biotin tag sequence is described in detail in “A gate-latch-lock mechanism for hormone signaling by abscisic acid receptors” (Nature, Vol 462, 2009). The construction method of recombinant plasmids for PYR1 and PYL7 (whole gene coding sequence) and Soybean GmPYL6 and rice OsPYL2 with dual tags of 6×His and SUMO sequence is the same as that for Arabidopsis PYL2.
# The above recombinant plasmid is transformed into competent cell of E. coli BL21 (DE3) (purchased from NEB company), and inoculated into 200 ml of LB liquid medium containing Amp resistance (purchased from OXOID company) and cultured overnight at 37° C. at 200 rpm; and inoculated into 2 L of LB liquid medium containing Amp resistance at a ratio of 1:50-1:100 for an extended culture, and cultured at 37° C., 200 rpm for 3-4 hours, and at a low temperature of 16° C. until OD600 is about 0.8-1.0. Recombinant plasmids for PYR1/PYL1/PYL2/PYL7/GmPYL6/OsPYL2 with dual tags of 6×His and SUMO sequence were induced overnight with 100 μM of IPTG while HAB1 recombinant plasmid with the Biotin tag sequence was induced simultaneously with 100 μM of IPTG and 40 μM of biotin.
# After 16 hours of induction, the bacterial solution was centrifuged at 4000 rpm for 20 minutes at 4° C. in a low-speed high-capacity centrifuge, and the bacteria cells were collected. Bacteria cells were resuspended in 50 ml of extraction buffer (containing 20 mM Tris, pH 8.0, 200 mM NaCl and 10% (v/v) glycerol) for per 2 L of bacterial solution and then subjected to pressure-breaking at […] and 4° C. for 3-5 times. The broken cells were subjected to ultracentrifugation, centrifuged at 16000 rpm for 30 minutes, and this process was repeated twice. The supernatant was collected and subjected to an affinity chromatography column.
# For PYR/PYL proteins with dual tags of 6×His and SUMO sequences, 50 ml of affinity chromatography Ni column (50 ml Ni-NTA column, available from GE) was used. Firstly, the column was equilibrated with 600 ml of 10% buffer B (containing 20 mM Tris, PH 8.0, 200 mM NaCl, 500 mM imidazole and 10% glycerol), and then eluted with 200 ml of 50% buffer B and finally eluted with 100 ml of 100% buffer B. Proteins for crystal analysis were mixed with ulp1 enzyme at a molar ratio of 1000:1 for enzymatic dialysis overnight. The digested proteins were subjected to affinity chromatography on a Ni column once more. The collected solution was subjected to a HiLoad 26/60 Superdex200 gel filtration column (commercially available from GE) and eluted with an elution solution (containing 25 mM Tris, pH 8.0, 200 mM ammonium acetate, 1 mM dithiotreitol and 1 mM EDTA) to further separate and purify the protein.
# For a HAB1 protein with a Biotin tag sequence, it was subjected to a 50 ml MBP affinity column (available from GE). The column was firstly equilibrated with 600 ml of 10% buffer C (containing 20 mM Tris, pH 8.0, 200 mM NaCl, 10 mM Maltose and 10% Glycerol), and eluted with 200 ml of 50% buffer C and finally eluted with 100 ml of 100% buffer C. […]
Structure (SMILES),"EC50 (EC50, FIG. 2a)","EC50 (EC50, FIG. 2h)","EC50 (FIG. 2a, read-out: EC50)"
"CC1=CC(=O)CC(C)(C)[C@@]1(O)/C=C/C(C)=C\C(=O)O [ABA, Abscisic Acid, reference compound]",3.57 µM,4.22 µM,
CCCN1C(=O)OC(C)c2cc(NS(=O)(=O)Cc3c(F)c(F)c(C)c(F)c3F)ccc21 (stereo not shown) [Compound 0224],,,0.0901 µM
CCCN1C(=O)OC(C)(C)c2cc(NS(=O)(=O)Cc3c(F)c(F)c(C)c(F)c3F)ccc21 [Compound 0304],,,0.148 µM
